Results as given in US20260285859A1, “BI-CYCLIC PYRIMIDINE COMPOUNDS, METHODS AND USES THEREOF” (Zeno Management, Inc., priority 2023, published 2026).

What was measured:
PKMYT1 = target: T1, PKMYT1 (Homo sapiens, UniProt Q99640); experiment: LanthaScreen Eu Kinase Binding Assay, PKMYT1
T1 sequence (Q99640 1-499): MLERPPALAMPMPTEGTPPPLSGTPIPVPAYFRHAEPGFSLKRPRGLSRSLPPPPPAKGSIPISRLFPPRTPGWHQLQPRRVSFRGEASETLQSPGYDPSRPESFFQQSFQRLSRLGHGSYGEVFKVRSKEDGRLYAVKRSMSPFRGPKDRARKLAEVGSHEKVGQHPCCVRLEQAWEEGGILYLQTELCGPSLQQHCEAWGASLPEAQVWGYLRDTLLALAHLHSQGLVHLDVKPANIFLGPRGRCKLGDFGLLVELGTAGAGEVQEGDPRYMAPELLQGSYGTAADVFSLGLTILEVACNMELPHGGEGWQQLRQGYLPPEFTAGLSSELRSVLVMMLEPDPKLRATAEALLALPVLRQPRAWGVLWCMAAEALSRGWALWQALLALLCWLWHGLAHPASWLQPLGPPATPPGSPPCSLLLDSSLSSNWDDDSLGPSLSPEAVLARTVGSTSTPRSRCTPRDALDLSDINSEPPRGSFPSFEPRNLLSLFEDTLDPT
Experimental: (§1) Binding of the tracer to the kinase is detected using a europium-labeled anti-GST antibody, which binds to the fused tag on the kinase protein. […] Inhibitor binding to the kinase competes with tracer binding, resulting in loss of FRET from the donor/acceptor pairs.
(§2) Kinase/Antibody Mixtures and Tracer are diluted to a 2× and 4× working concentration, respectively in this same buffer. […] 0% displacement (no known inhibitor) and 100% displacement (highest concentration of known inhibitor) controls were included on each plate for maximum and minimum Emission Ratio determination, respectively. Dasatinib was used for both PKMYT1 and WEE1 as the known inhibitor.
(§3) IC50 determination was performed using a non-linear regression, variable slope (four parameter), inhibitor v. response equation (Prism 9.0).

WEE1 = WEE1 (Homo sapiens, UniProt P30291); experiment: LanthaScreen Eu Kinase Binding Assay, WEE1
Sequence of WEE1 (P30291 whole entry): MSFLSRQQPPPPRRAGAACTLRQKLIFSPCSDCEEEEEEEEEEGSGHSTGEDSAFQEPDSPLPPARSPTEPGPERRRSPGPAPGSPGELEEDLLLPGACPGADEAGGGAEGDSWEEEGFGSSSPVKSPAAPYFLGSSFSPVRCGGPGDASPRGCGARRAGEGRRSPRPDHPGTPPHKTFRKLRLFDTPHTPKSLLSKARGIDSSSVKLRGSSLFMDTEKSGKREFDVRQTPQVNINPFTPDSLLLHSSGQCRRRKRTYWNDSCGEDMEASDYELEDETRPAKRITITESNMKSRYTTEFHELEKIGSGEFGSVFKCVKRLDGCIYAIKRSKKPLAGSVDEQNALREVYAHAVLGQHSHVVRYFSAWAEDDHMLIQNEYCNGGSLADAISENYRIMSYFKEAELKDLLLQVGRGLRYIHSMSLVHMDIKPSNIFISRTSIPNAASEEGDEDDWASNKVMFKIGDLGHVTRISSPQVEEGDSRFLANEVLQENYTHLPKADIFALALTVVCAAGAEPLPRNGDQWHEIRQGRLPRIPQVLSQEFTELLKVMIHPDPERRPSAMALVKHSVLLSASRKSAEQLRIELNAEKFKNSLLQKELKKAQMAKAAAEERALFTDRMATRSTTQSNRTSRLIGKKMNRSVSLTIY
Experimental: as §1, §2, §3

Row | SMILES | IC50 (PKMYT1) | IC50 (WEE1)
1 | Cc1cc(-c2c(C)ccc(O)c2C)c2ncnc(N)c2n1 [Compound 74-B, (R)-3-(4-amino-6-methylpyrido[3,2-d]pyrimidin-8-yl)-2,4-dimethylphenol] | 10 to 100 nM | > 1000 nM
2 | Cc1ccc(O)c(C)c1-c1nc(N2CC[C@@H](F)C2)cc2c(N)ncnc12 (single isomer, unassigned) [Compound 58-B] | < 10 nM | 100 to 1000 nM
3 | Cc1ccc(O)c(C)c1-c1nc(C(C)C)cc2c(N)ncnc12 (single isomer, unassigned) [Compound 50-B] | 10 to 100 nM | > 1000 nM
4 | Cc1ccc(O)c(C)c1-c1nc(N2CC[C@H](F)C2)cc2c(N)ncnc12 (single isomer, unassigned) [Compound 59-B] | < 10 nM | 100 to 1000 nM
5 | COC[C@@H]1CCN1c1cc2c(N)ncnc2c(-c2c(C)ccc(O)c2C)n1 (single isomer, unassigned) [Compound 24-B] | 10 to 100 nM | > 1000 nM
6 | Cc1ccc(O)c(C)c1-c1nc(N(C)CCO)cc2c(N)ncnc12 (racemic) [Compound 47-A, 3-(4-amino-6-((2-hydroxyethyl)(methyl)amino)pyrido[3,4-d]pyrimidin-8-yl)-2,4-dimethylphenol] | 10 to 100 nM | > 1000 nM
7 | Cc1ccc(O)c(C)c1-c1nc(N(C)c2cnn(C)c2)cc2c(N)ncnc12 (single isomer, unassigned) [Compound 46-B] | < 10 nM | > 1000 nM
8 | Cc1ccc(O)c(C)c1-c1nc(N(C)C2CCCC2)cc2c(N)ncnc12 (single isomer, unassigned) [Compound 44-B] | < 10 nM | 100 to 1000 nM
9 | COCCN(C)c1cc2c(N)ncnc2c(-c2c(C)ccc(O)c2C)n1 (single isomer, unassigned) [Compound 9-B] | 10 to 100 nM | > 1000 nM
10 | COC[C@H]1CCN1c1cc2c(N)ncnc2c(-c2c(C)ccc(O)c2C)n1 (single isomer, unassigned) [Compound 25-B] | 10 to 100 nM | > 1000 nM
11 | Cc1ccc(O)c(C)c1-c1nc(N(C)CC(F)F)cc2c(N)ncnc12 (single isomer, unassigned) [Compound 28-B] | < 10 nM | > 1000 nM
12 | Cc1ccc(O)c(C)c1-c1nc(N2CC[C@H](O)C2)cc2c(N)ncnc12 (single isomer, unassigned) [Compound 4-B] | 10 to 100 nM | > 1000 nM
13 | Cc1ccc(O)c(C)c1-c1nc(N2CC[C@@H](O)C2)cc2c(N)ncnc12 (single isomer, unassigned) [Compound 3-B] | < 10 nM | > 1000 nM
14 | Cc1cc2c(C(N)=O)c(N)n(-c3c(C)ccc(O)c3C)c2nc1C [RP-6306, Lunresertib, reference compound] | – | 10 to 100 nM
15 | Cc1ccc(O)c(C)c1-c1cc(N(C)C2CC2)nc2c(N)ncnc12 [Compound 75-B, (R)-3-(4-amino-6-(cyclopropyl(methyl)amino)pyrido[3,2-d]pyrimidin-8-yl)-2,4-dimethylphenol] | 10 to 100 nM | > 1000 nM
16 | Cc1ccc(O)c(C)c1-c1nc(N[C@H]2C[C@H](O)C2)cc2c(N)ncnc12 (single isomer, unassigned) [Compound 15-B] | 10 to 100 nM | > 1000 nM
17 | C=C(C)c1cc2c(N)ncnc2c(-c2c(C)ccc(O)c2C)n1 (single isomer, unassigned) [Compound 57-B] | < 10 nM | > 1000 nM
18 | Cc1ccc(O)c(C)c1-c1nc(C(=O)N2CCCC2)cc2c(N)ncnc12 (single isomer, unassigned) [Compound 34-B] | 100 to 1000 nM | > 1000 nM
19 | Cc1ccc(O)c(C)c1-c1nc(N2CC(C)(CO)C2)cc2c(N)ncnc12 (single isomer, unassigned) [Compound 22-B] | 10 to 100 nM | > 1000 nM
20 | Cc1ccc(O)c(C)c1-c1nc(C(F)F)cc2c(N)ncnc12 (single isomer, unassigned) [Compound 48-B] | 10 to 100 nM | > 1000 nM
21 | Cc1cc2c(N)ncnc2c(-c2c(C)ccc(O)c2C)n1 [Compound 17-B, (S)-3-(4-Amino-6-methylpyrido[3,4-d]pyrimidin-8-yl)-2,4-dimethylphenol] | 10 to 100 nM | > 1000 nM
22 | [2H]C([2H])([2H])N(c1cc2c(N)ncnc2c(-c2c(C)ccc(O)c2C)n1)C1CC1 [Compound 60-B, (S)-3-(4-amino-6-(cyclopropyl(methyl-d3)amino)pyrido[3,4-d]pyrimidin-8-yl)-2,4-dimethylphenol] | < 10 nM | 100 to 1000 nM
23 | CCN(C)c1cc2c(N)ncnc2c(-c2c(C)ccc(O)c2C)n1 (single isomer, unassigned) [Compound 27-B] | < 10 nM | > 1000 nM
24 | Cc1cc2c(N)ncnc2c(-c2c(C)ccc(O)c2C)c1C (single isomer, unassigned) [Compound 52-B] | 10 to 100 nM | > 1000 nM
25 | Cc1ccc(O)c(C)c1-c1nc(N(C)C(C)C)cc2c(N)ncnc12 (single isomer, unassigned) [Compound 12-B] | < 10 nM | > 1000 nM

Other lines, results leading:

Row | IC50 (PKMYT1) | IC50 (WEE1) | SMILES
26 | < 10 nM | > 1000 nM | Cc1ccc(O)c(C)c1-c1cc(NC2CC2)nc2c(N)ncnc12 [Compound 72-B, (R)-3-(4-amino-6-(cyclopropylamino)pyrido[3,2-d]pyrimidin-8-yl)-2,4-dimethylphenol]
27 | < 10 nM | 100 to 1000 nM | Cc1ccc(O)c(C)c1-c1nc(-c2cnn(C)c2)cc2c(N)ncnc12 (single isomer, unassigned) [Compound 19-B]
28 | < 10 nM | > 1000 nM | Cc1ccc(O)c(C)c1-c1nc(N(C)CC2CC2)cc2c(N)ncnc12 (single isomer, unassigned) [Compound 30-B]
29 | 10 to 100 nM | > 1000 nM | CNc1cc2c(N)ncnc2c(-c2c(C)ccc(O)c2C)n1 (single isomer, unassigned) [Compound 1-B]
30 | < 10 nM | > 1000 nM | Cc1ccc(O)c(C)c1-c1nc(N(C)CC(F)(F)F)cc2c(N)ncnc12 (single isomer, unassigned) [Compound 29-B]
31 | < 10 nM | > 1000 nM | Cc1ccc(O)c(C)c1-c1nc(C2CC2)cc2c(N)ncnc12 (single isomer, unassigned) [Compound 18-B]
32 | 10 to 100 nM | > 1000 nM | Cc1ccc(O)c(C)c1-c1nc(N2CC(F)(F)C2)cc2c(N)ncnc12 (single isomer, unassigned) [Compound 5-B]
33 | < 10 nM | 100 to 1000 nM | Cc1ccc(O)c(C)c1-c1nc(N2CC[C@@](C)(F)C2)cc2c(N)ncnc12 (single isomer, unassigned) [Compound 54-B]
34 | < 10 nM | > 1000 nM | Cc1ccc(O)c(C)c1-c1nc(N2CC[C@]3(CCO3)C2)cc2c(N)ncnc12 (single isomer, unassigned) [Compound 38-B]
35 | 10 to 100 nM | – | Cc1ccc(O)c(C)c1-c1nc(C(F)(F)F)cc2c(N)ncnc12 (single isomer, unassigned) [Compound 39-B]
36 | < 10 nM | 100 to 1000 nM | Cc1ccc(O)c(C)c1-c1nc(N2CC[C@](C)(F)C2)cc2c(N)ncnc12 (single isomer, unassigned) [Compound 55-B]
37 | < 10 nM | 100 to 1000 nM | CCN(c1cc2c(N)ncnc2c(-c2c(C)ccc(O)c2C)n1)C1CC1 (single isomer, unassigned) [Compound 36-B]
38 | < 10 nM | > 1000 nM | CO[C@H]1C[C@H](N(C)c2cc3c(N)ncnc3c(-c3c(C)ccc(O)c3C)n2)C1 [Compound 62-D, 3-((S)-4-amino-6-(((1r,3S)-3-methoxycyclobutyl)(methyl)amino)pyrido[3,4-d]pyrimidin-8-yl)-2,4-dimethylphenol]
39 | < 10 nM | 100 to 1000 nM | Cc1ccc(O)c(C)c1-c1nc(N2CCC(F)(F)C2)cc2c(N)ncnc12 (single isomer, unassigned) [Compound 2-B]
40 | < 10 nM | > 1000 nM | Cc1ccc(O)c(C)c1-c1nc(N(C)[C@H]2[C@@H]3COC[C@@H]32)cc2c(N)ncnc12 [Compound 61-B, 3-((S)-6-(((1R,5S,6r)-3-oxabicyclo[3.1.0]hexan-6-yl)(methyl)amino)-4-aminopyrido[3,4-d]pyrimidin-8-yl)-2,4-dimethylphenol]
41 | < 10 nM | > 1000 nM | C#Cc1cc2c(N)ncnc2c(-c2c(C)ccc(O)c2C)n1 (single isomer, unassigned) [Compound 33-B]
42 | < 10 nM | > 1000 nM | Cc1ccc(O)c(C)c1-c1nc(N2CCCC2)cc2c(N)ncnc12 (single isomer, unassigned) [Compound 6-B]
43 | 10 to 100 nM | > 1000 nM | Cc1ccc(O)c(C)c1-c1cc(N(C)C)nc2c(N)ncnc12 [Compound 73-B, (R)-3-(4-Amino-6-(dimethylamino)pyrido[3,2-d]pyrimidin-8-yl)-2,4-dimethylphenol]
44 | < 10 nM | 100 to 1000 nM | Cc1ccc(O)c(C)c1-c1nc(N(C)C2(C(F)(F)F)CC2)cc2c(N)ncnc12 (single isomer, unassigned) [Compound 42-B]
45 | < 10 nM | 100 to 1000 nM | Cc1ccc(O)c(C)c1-c1nc(-c2ccncc2)cc2c(N)ncnc12 [Compound 32-B, (S)-3-(4-amino-6-(pyridin-4-yl)pyrido[3,4-d]pyrimidin-8-yl)-2,4-dimethylphenol]
46 | 10 to 100 nM | > 1000 nM | Cc1ccc(O)c(C)c1-c1nc(N2CC[C@](C)(O)C2)cc2c(N)ncnc12 (single isomer, unassigned) [Compound 13-E]
